Measured values: patent US4092415A, “Microorganism combatting quinoxaline-di-N-oxide carboxamides” (Ciba-Geigy Corporation, priority 1976, dated 1978)
Read-outs that look alike come from different tables or passages of the source.

Assays:
Type in all cases: in vivo
[1] = test system: simultaneously infected hens; assay: Single peroral administration to simultaneously infected hens; conditions: Gallus gallus, po, single peroral administration by probang, simultaneous with infection
Excerpt: Single peroral administration by means of a probang to
simultaneously infected hens in mg of active substance

E. coli 205 = assay: Intraperitoneally infected white mice, E. coli 205; conditions: Escherichia coli, with infection and 3 hours later, read-out: average effective dose/confidence interval
Experimental: (§1) In tests carried out on white mice, the intraperitoneally infected animals are treated subcutaneously and perorally as follows:
(§2) The administration is effected in doses of 1 mg, 3 mg, 10 mg, 30 mg, 100 mg or 300 mg of active substance per kg of body weight initially simultaneously with the infection and a second time 3 hours later.

Past. mult. = assay: Intraperitoneally infected white mice, Past. mult.; conditions: Mus musculus, with infection and 3 hours later, read-out: average effective dose/confidence interval
Experimental: as §1, §2

Salm. ty.-m = assay: Intraperitoneally infected white mice, Salm. ty.-m; conditions: Mus musculus, with infection and 3 hours later, read-out: average effective dose/confidence interval
Experimental: as §1, §2

Staph. aureus Smith = assay: Intraperitoneally infected white mice, Staph. aureus Smith; conditions: Staphylococcus aureus, with infection and 3 hours later, read-out: average effective dose/confidence interval
Experimental: as §1, §2

Strept. pyog. Aronson = assay: Intraperitoneally infected white mice, Strept. pyog. Aronson; conditions: Mus musculus; for ED50: with infection and 3 hours later, read-out: average effective dose/confidence interval; for ED20: value marked (ED 20)
Experimental: as §1, §2

Pseud. aerug. = assay: Intraperitoneally infected white mice, Pseud. aerug.; conditions: Mus musculus, with infection and 3 hours later, read-out: average effective dose/confidence interval
Experimental: as §1, §2

piglets = assay: Demonstration of growth: piglets fed 28 days with medicated feed; conditions: 50 ppm in feed
Excerpt: A group of eight piglets (four .male. and four .female.) was fed for 28 days with a normal feed containing 17.6% of raw protein and 3.4% of crude fibres and to which 50 ppm of 1,4-dioxido-3-methyl-quinoxaline(2)-N-(2'-cyanoethyl)-carboxamide (Example 1) had been added. The average initial weight of the individual test animals was approx. 9 kg at the start of the test. At the conclusion of the test the animals were weighed individually and the feed consumption determined in groups. For control purposes, a parallel test following the same procedure was carried out using the same feed without the addition of active substance.

| Compound | ED50 [1] | ED50 (E. coli 205; 2 × po.) | ED50 (E. coli 205; 2 × sc.) | ED50 (Past. mult.; 2 × po.) | ED50 (Past. mult.; 2 × sc.) | ED50 (Salm. ty.-m; 2 × po.) | ED50 (Salm. ty.-m; 2 × sc.) | ED50 (Staph. aureus Smith; 2 × po.) | ED50 (Staph. aureus Smith; 2 × sc.) | ED50 (Strept. pyog. Aronson; 2 × po.) | ED20 (Strept. pyog. Aronson; 2 × sc.) | ED50 (Pseud. aerug.; 2 × po.) | ED50 (Pseud. aerug.; 2 × sc.) | ED20 (Strept. pyog. Aronson; 2 × po.) | ED50 (Strept. pyog. Aronson; 2 × sc.) | Feed consumption index abs. (piglets; average values, control 1.90) | Daily growth rate abs. (piglets; average values, control 231 g) | Daily growth rate rel. (piglets; control 100%) | Feed consumption index rel. (piglets; control 100%) |
| --- | --- | --- | --- | --- | --- | --- | --- | --- | --- | --- | --- | --- | --- | --- | --- | --- | --- | --- | --- |
| Cc1c(C(=O)NCC#N)[n+]([O-])c2ccccc2[n+]1[O-] [A, 1,4-dioxido-3-methyl-quinoxaline(2)-N-(cyanomethyl)-carboxamide] | 2 mg/kg | 3.5 mg/kg | 3 mg/kg | 3.4 mg/kg | 3 mg/kg | 4.2 mg/kg | 3.9 mg/kg | 12 mg/kg | 10 mg/kg | 265 mg/kg | 205 mg/kg | 75 mg/kg | 120 mg/kg |  |  |  |  |  |  |
| Cc1c(C(=O)NC(C)(C)C#N)[n+]([O-])c2ccccc2[n+]1[O-] [B] |  | 18 mg/kg | 11 mg/kg | 5.1 mg/kg | 3.2 mg/kg | 25 mg/kg | 11 mg/kg | 18 mg/kg | 16 mg/kg |  | 140 mg/kg | > 300 mg/kg | > 100 mg/kg | 170 mg/kg |  |  |  |  |  |
| Cc1c(C(=O)NCCO)[n+]([O-])c2ccccc2[n+]1[O-] [D, reference compound] | 5.3 mg/kg | 10 mg/kg | 9 mg/kg | 15 mg/kg | 14 mg/kg | 13 mg/kg | 10 mg/kg | 60 mg/kg | 40 mg/kg | 410 mg/kg |  | 490 mg/kg | 210 mg/kg |  | 425 mg/kg |  |  |  |  |
| Cc1c(C(=O)NCCC#N)[n+]([O-])c2ccccc2[n+]1[O-] [C, 1,4-Dioxido-3-methyl-quinoxaline(2)-N-(2'-cyanoethyl)-carboxamide] |  | 6.6 mg/kg | 5.5 mg/kg | 3.9 mg/kg | 5.5 mg/kg | 11 mg/kg | 10 mg/kg | 27 mg/kg | 18 mg/kg | 275 mg/kg |  | 235 mg/kg | 105 mg/kg |  | 400 mg/kg | 1.69 kg of feed consumed per kg of | 305 g | 132% | 88,9% |
| COC(=O)N/N=C/c1c[n+]([O-])c2ccccc2[n+]1[O-] [E, reference compound] | 9 mg/kg | 30 mg/kg | 300 mg/kg | ~30 mg/kg | ~100 mg/kg | 25 mg/kg | 140 mg/kg | 35 mg/kg | 2500 mg/kg |  |  |  |  |  |  |  |  |  |  |
